# Measurements taken from patent US20060216791A1, “Method for synthesizing amino-acid-selectively labeled protein” (Mitsubishi Chemical Corporation, priority 2003, published 2006).
# Tests used:
# Type in all cases: biochemical
# [1] = system: transaminase; assay: Amino acid metabolism by transaminase in wheat germ cell-free system, 1H-15N HSQC of synthesized yeast ubiquitin; conditions: for metabolism of glutamic acid to aspartic acid: only glutamic acid labeled with 15N
# Experimental: (§1) The mixed solution was allowed to react for 2 days with a dialysis buffer solution, wherein only one type of amino acid had been labeled with ^15N (manufactured by Cambridge Isotope Laboratories) and 19 types of remaining amino acids were ordinary amino acids. Thereafter, the dialysis buffer solution was exchanged with a fresh buffer solution, and the protein synthesis reaction was carried out further for 2 days. Thereafter, 1 ml of the reaction solution was concentrated to 250 μl using a Centricon-3 ultrafiltration concentration device manufactured by Millipore. […] The concentrated solution was passed through a Micro Spin G-25 gel filtration column manufactured by Amersham that had previously been equilibrated with a buffer solution used for NMR measurement (50 mM sodium phosphate, pH 6.5, 100 mM NaCl), so that the buffer solution was exchanged with a buffer solution used for the measurement, thereby preparing an NMR measurement sample.
# (§2) For the NMR measurement, an Avance-500 spectrometer manufactured by Bruker was used. In order to maintain the stability of a magnetic field, 10% D2O used for NMR lock was added to the measurement sample, and thereafter, ^1H-^15N HSQC measurement was carried out. The measurement temperature was set at 30° C.
# (§3) Subsequently, the concentration of aminooxyacetic acid in a translation solution and an external dialysis solution was set at 1 mM. The following 3 types of substrate amino acids were prepared: (1) only alanine was labeled with ^15N and 19 types of remaining amino acids were ordinary amino acids; (2) only aspartic acid was labeled with ^15N and 19 types of remaining amino acids were ordinary amino acids; and (3) only glutamic acid was labeled with ^15N and 19 types of remaining amino acids were ordinary amino acids. Using these substrate amino acids, yeast ubiquitins were synthesized by the same method as described in Example 1, and the ^1H-^15N HSQC was measured. […] Moreover, the aforementioned experiment was carried out under conditions whereby the concentration of aminooxyacetic acid was set at 0.1 μM, 1 μM, 10 μM, 100 μM, and 1 mM.
# (§4) Subsequently, the concentration of aminooxyacetic acid was set at 1 mM and the concentration of L-methionine sulfoximine was set at 0.1 mM in a translation solution and an external dialysis solution. Substrate amino acid was prepared such that only glutamic acid was labeled with ^15N and 19 types of remaining amino acids were ordinary amino acids. Using such substrate amino acid, yeast ubiquitin was synthesized by the same method as described in examples, and the ^1H-^15N HSQC was measured. […] Moreover, the aforementioned experiment was carried out under conditions whereby the concentration of L-methionine sulfoximine was set at 0.1 μM, 1 μM, 10 μM, and 100 μM.
# [2] = system: cell-free protein synthetic system containing a wheat germ extract; assay: Amount of GFP synthesized by wheat germ cell-free protein synthesis (GFP fluorescence intensity)
# [3] = system: glutamine synthetase; assay: Metabolism of glutamic acid to glutamine in wheat germ cell-free system, 1H-15N HSQC of synthesized yeast ubiquitin
# Experimental: as §1, §2, §3, §4
Compound,"metabolism of glutamic acid to aspartic acid ([1]; 1 mM aminooxyacetic acid plus 0.1 mM L-methionine sulfoximine, FIG. 8)","HSQC signals observed (selective labeling) ([1]; 1 mM aminooxyacetic acid, only alanine labeled with 15N, FIG. 5A)","HSQC signals observed (selective labeling) ([1]; 1 mM aminooxyacetic acid, only aspartic acid labeled with 15N, FIG. 5B)","metabolism of glutamic acid to aspartic acid ([1]; 1 mM aminooxyacetic acid, FIG. 6)",inhibition of the metabolism ([1]; aminooxyacetic acid 10 μM),inhibition of the metabolism ([1]; aminooxyacetic acid 100 μM or more),"amount of GFP synthesized ([2]; aminooxyacetic acid 4 mM or less in external dialysis solution and reaction solution, FIG. 4)","synthesized amount of GFP maintained ([2]; aminooxyacetic acid 10 mM, FIG. 4)","activity of metabolizing glutamic acid to glutamine ([3]; 1 mM aminooxyacetic acid, only glutamic acid labeled with 15N, FIG. 6)","amount of GFP synthesized ([2]; L-methionine sulfoximine 20 mM or less in external dialysis solution and reaction solution, FIG. 7)","metabolism of glutamic acid to glutamine ([3]; 0.1 mM L-methionine sulfoximine plus 1 mM aminooxyacetic acid, only glutamic acid labeled with 15N, FIG. 8)",inhibition of the metabolism ([3]; L-methionine sulfoximine 10 μM),inhibition of the metabolism ([3]; L-methionine sulfoximine 100 μM or more)
NOCC(=O)O [aminooxyacetic acid],suppressed,only signal derived from alanine or aspartic acid was observed,only signal derived from alanine or aspartic acid was observed,suppressed,two thirds,completely inhibited,not reduced,approximately 70%,has still remained,–,–,–,–
CS(=N)(=O)CC[C@H](N)C(=O)O (stereo partly drawn) [L-methionine sulfoximine],–,–,–,–,–,–,–,–,–,not reduced,suppressed,two thirds,completely inhibited
